Assay results published in ChEMBL document CHEMBL1201862, “PubChem BioAssay data set” (2004).
Active and inactive are the calls of the source.

Columns and labels:
Cytochrome P450 1A2 = target: T1, Cytochrome P450 1A2 (Homo sapiens, UniProt P05177);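 further: PubChem cytochrome P450 panel assay, CYP1A2 panel member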
T1 sequence (P05177 whole entry): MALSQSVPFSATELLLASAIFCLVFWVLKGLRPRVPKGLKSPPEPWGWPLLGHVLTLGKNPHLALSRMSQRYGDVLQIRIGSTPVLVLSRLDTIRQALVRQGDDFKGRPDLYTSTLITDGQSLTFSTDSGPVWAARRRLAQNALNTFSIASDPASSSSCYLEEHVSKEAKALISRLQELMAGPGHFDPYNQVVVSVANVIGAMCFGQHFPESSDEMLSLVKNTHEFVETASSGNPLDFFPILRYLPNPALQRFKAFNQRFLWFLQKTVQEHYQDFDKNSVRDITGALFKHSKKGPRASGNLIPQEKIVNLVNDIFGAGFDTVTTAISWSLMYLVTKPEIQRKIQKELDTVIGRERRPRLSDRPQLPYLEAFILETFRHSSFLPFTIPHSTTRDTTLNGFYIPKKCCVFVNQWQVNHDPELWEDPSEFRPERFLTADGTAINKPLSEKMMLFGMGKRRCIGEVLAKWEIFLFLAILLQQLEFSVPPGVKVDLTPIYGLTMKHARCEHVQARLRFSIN

Cytochrome P450 2C9 = Cytochrome P450 2C9 (Homo sapiens, UniProt P11712)
Sequence of Cytochrome P450 2C9 (P11712 whole entry): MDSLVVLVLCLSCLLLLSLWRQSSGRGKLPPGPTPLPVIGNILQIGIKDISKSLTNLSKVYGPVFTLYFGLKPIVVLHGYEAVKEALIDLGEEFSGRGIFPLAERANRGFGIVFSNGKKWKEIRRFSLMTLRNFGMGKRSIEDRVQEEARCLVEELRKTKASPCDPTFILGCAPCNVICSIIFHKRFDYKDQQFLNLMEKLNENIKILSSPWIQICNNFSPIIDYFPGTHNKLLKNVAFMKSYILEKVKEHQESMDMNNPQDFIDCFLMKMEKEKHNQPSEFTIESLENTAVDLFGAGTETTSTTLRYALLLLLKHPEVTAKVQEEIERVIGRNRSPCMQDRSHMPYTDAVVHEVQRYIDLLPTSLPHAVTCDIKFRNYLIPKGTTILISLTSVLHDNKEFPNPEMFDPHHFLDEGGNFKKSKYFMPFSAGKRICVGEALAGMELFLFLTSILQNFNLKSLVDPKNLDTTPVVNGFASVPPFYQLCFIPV

Cytochrome P450 2C19 = Cytochrome P450 2C19 (Homo sapiens, UniProt P33261); test: Cytochrome panel assay with activity outcomes. Panel member name: p450-cyp2c19 Compounds with AC50 equal or less than 10 uM are considered active; format: functional
Sequence of Cytochrome P450 2C19 (P33261 whole entry, the tested form may be a part): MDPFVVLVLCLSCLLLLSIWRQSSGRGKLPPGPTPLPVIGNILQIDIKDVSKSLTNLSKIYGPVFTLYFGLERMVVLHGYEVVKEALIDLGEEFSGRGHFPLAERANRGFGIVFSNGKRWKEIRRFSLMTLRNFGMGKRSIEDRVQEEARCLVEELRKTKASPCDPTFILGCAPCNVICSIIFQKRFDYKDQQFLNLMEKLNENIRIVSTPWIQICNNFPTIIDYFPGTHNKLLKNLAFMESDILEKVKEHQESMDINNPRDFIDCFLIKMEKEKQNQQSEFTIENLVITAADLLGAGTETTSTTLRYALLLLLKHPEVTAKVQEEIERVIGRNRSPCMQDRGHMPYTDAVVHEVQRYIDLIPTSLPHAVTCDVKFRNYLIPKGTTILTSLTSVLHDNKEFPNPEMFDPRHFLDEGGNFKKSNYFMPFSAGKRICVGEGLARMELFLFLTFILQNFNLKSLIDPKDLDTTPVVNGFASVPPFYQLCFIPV

[1] = target: T2, RNA-binding protein pos-1 (Caenorhabditis elegans, UniProt G5EF15); test: disruptors of C. elegans POS-1 RNA interaction – biochemical, fluorescence polarization, dose response (AID 1964);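 further: purified POS-1 fused to maltose binding protein made in E. coli; potency of compounds blocking POS-1 binding to fluorescent RNA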
T2 sequence (G5EF15 whole entry): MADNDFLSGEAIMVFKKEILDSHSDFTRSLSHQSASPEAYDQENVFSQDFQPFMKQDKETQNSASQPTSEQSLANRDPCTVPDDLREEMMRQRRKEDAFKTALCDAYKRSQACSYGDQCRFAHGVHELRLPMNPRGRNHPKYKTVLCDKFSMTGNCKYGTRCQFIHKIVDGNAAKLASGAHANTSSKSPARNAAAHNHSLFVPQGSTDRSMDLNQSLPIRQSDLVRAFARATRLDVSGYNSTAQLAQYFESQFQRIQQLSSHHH

[2] = target: T3, Zinc finger protein mex-5 (Caenorhabditis elegans, UniProt Q9XUB2); test: potency of MEX-5 RNA-binding blockers – biochemical, C. elegans, fluorescence polarization, dose response (AID 1960)
T3 sequence (Q9XUB2 whole entry): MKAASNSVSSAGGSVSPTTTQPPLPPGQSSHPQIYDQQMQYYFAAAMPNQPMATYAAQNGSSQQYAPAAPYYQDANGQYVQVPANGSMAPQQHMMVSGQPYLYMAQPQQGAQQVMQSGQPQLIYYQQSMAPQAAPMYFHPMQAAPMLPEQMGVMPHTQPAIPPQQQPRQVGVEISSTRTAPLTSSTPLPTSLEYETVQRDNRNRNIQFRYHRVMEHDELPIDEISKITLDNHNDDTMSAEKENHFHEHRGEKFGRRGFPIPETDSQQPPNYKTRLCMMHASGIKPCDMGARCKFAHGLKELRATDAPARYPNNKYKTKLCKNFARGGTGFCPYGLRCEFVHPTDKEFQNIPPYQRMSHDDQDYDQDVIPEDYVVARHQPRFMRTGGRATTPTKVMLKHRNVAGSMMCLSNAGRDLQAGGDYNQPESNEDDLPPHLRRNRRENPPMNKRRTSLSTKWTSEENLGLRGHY

Cytochrome P450 3A4 = Cytochrome P450 3A4 (Homo sapiens, UniProt P08684);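 further: CYP3A4 tested as one member of a cytochrome P450 panel screen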
Sequence of Cytochrome P450 3A4 (P08684 whole entry): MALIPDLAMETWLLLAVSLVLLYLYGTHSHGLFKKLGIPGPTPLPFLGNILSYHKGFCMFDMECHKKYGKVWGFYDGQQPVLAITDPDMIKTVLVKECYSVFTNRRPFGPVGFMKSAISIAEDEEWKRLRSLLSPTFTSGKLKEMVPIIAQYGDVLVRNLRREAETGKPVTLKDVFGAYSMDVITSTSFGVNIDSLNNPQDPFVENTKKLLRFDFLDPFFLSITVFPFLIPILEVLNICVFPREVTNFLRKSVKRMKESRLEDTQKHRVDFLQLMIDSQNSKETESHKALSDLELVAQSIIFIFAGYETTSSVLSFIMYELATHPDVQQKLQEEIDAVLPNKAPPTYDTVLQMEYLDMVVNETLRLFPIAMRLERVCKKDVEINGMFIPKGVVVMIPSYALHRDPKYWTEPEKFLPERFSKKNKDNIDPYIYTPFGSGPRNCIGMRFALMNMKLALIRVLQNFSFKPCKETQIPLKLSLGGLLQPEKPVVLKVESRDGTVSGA

[3] = target: T4, Heat shock factor protein 1 (Mus musculus, UniProt P38532); test: decrease of HSF1-responsive luciferase luminescence – cell-based, NIH3T3, dose retest, confirmation (AID 2382); format: functional;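 further: NIH3T3 fibroblasts with HSF1-driven luciferase reporter stressed by proteasome inhibitor MG132; luminescence from HSF1-driven luciferase expression after 8 hours of MG132 stress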
T4 sequence (P38532 whole entry): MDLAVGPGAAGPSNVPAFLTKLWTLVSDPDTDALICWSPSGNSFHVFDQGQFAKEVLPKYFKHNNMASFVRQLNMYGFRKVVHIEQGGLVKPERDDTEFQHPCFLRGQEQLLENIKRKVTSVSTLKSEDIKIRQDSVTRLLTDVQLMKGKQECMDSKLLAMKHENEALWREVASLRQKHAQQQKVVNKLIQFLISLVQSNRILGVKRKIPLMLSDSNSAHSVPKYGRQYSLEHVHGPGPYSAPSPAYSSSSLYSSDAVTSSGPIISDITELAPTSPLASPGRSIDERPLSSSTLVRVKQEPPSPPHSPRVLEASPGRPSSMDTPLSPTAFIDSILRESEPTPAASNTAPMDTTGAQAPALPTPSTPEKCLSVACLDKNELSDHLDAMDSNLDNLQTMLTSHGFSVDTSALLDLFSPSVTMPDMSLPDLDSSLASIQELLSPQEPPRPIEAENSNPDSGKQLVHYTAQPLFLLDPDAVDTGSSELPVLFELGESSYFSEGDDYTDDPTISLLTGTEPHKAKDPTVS

SMILES	AC50 (Cytochrome P450 1A2)	EC50 [1]	EC50 [2]	other results
N#C/C(=C\N1CCNC1=S)C(=O)c1ccc2ccccc2c1	1.58 µM (inconclusive)	–	–	AC50 (Cytochrome P450 2C9): 3.16 µM (inconclusive)
CCN(CC)C(=O)CSc1nnc(C2CCCCC2)o1	–	–	–	AC50 (Cytochrome P450 2C19; read-out: AC50): 11.2 µM (inconclusive)
Cc1cnc(CNc2ncncc2-c2ccc(C(=O)N(C)C)cc2)cn1	20 µM (inconclusive)	–	–	–
COC(=O)c1cc(C(=O)OC)cc(-n2c(C)cc(C=O)c2C)c1	–	78.7 µM (active)	> 300 µM (not active)	–
CCC/C=C(\CCC)C(NC(=O)c1ccc(-c2ccccc2)cc1)c1ccc(C(=O)OC)cc1 (stereo not drawn)	0.631 µM (inconclusive)	–	–	AC50 (Cytochrome P450 3A4): 6.31 µM (inconclusive)
CCOC(=O)N1CCC(NC(=O)C(Cc2ccccc2)NC(=O)C2CCCCC2)CC1 (stereo not drawn)	–	> 300 µM (not active)	> 300 µM (not active)	–
Cc1c(Nc2ncccc2C(=O)O)cccc1C(F)(F)F	12.6 µM (inconclusive)	–	–	–
COc1ccc(-c2ccc(/C=C3\C(=O)N(c4ccccc4)N=C3c3ccccc3)o2)c([N+](=O)[O-])c1	5.01 µM (inconclusive)	–	–	–
O=C(c1cnccn1)N1CCC[C@@]2(CCN(c3ccccn3)C2)C1	20 µM (inconclusive)	–	–	–
CN(CCC(=O)O)C1=Nc2ccc(Cl)cc2C(c2ccccc2)=[N+]([O-])C1	0.0631 µM (inconclusive)	–	–	–
CCCc1c(O)nc(SCC(=O)N2CCCCC2)nc1O	–	> 300 µM (not active)	> 300 µM (not active)	–
CC(C)(C)[C@H]1C=C(C(=O)Nc2ccccc2)O[C@@H](OCCCCO)C1	–	–	–	EC50 [3]: 5.49 µM (active)
CC1(C)CC(=O)C(=NNc2ccc(OC(F)F)cc2)C(=O)C1	–	–	–	EC50 [3]: > 195 µM (not active)
S=C(NCc1ccncc1)Nc1ccc(Cl)cc1Cl	–	> 300 µM (not active)	> 300 µM (not active)	–
CCNc1ncc2nc(CCc3ccccc3)c(=O)n(-c3ccccc3)c2n1	–	–	–	AC50 (Cytochrome P450 2C19; read-out: AC50): 31.6 µM (inconclusive)
CC(CP(=O)(O)O)NC(=O)Cc1ccccc1 (stereo not drawn)	–	–	–	AC50 (Cytochrome P450 2C19): inconclusive

SMILES	AC50 (Cytochrome P450 1A2)	EC50 [1]	EC50 [2]	other results
O=C(NNC(=O)c1csc(-c2cccnc2)n1)c1ccccc1	–	> 300 µM (not active)	> 300 µM (inconclusive)	–
CCOC(=O)c1ccc(-n2c(C)ccc2C)cc1	–	> 300 µM (not active)	> 300 µM (not active)	–
COC(=O)c1ccc(-n2c(C)cc(C(=O)COC(=O)CNS(=O)(=O)c3ccc(C)cc3)c2C)cc1	–	> 300 µM (not active)	> 300 µM (not active)	–
O=c1/c(=C\c2ccc(O)cc2)sc2nc(-c3ccccc3)c(-c3ccccc3)n12	–	> 300 µM (not active)	> 300 µM (inconclusive)	–
O=C(NCCOc1ccccc1)C1Nc2ccc(OC(F)(F)F)cc2C2C=CCC12 (stereo not drawn)	–	> 300 µM (not active)	> 300 µM (not active)	–
Cc1nn2c(N3CCOCC3)c3c(nc2c1-c1ccccc1)CCCC3	–	> 300 µM (not active)	> 300 µM (not active)	–
COc1ccc(C(=O)N2CCC3(CCN(Cc4ccc(C#N)cc4)CC3)CC2)cc1	12.6 µM (inconclusive)	–	–	AC50 (Cytochrome P450 2C9): 31.6 µM (inconclusive)
Cc1cc(C)cc(OCC(O)CN2CC(C)OC(C)C2)c1 (stereo not drawn)	–	–	–	EC50 [3]: 32.9 µM (active)
Cc1cc(C)c(NC(=O)Nc2ccc3c(c2)OCO3)c(C)c1	–	–	–	EC50 [3]: > 195 µM (not active)
COc1nc(-c2ccccc2)ccc1-c1noc(COc2ccccc2)n1	–	–	–	EC50 [3]: > 195 µM (not active)
CCOC(=O)C1=C(CN2c3ccccc3CC2C)NC(=O)NC1c1ccccc1 (stereo not drawn)	22.4 µM (inconclusive)	–	–	AC50 (Cytochrome P450 2C9): 25.1 µM (inconclusive)
CCOC(=O)c1cc(=O)n2nc(-c3ccc(C)cc3)nc2s1	–	> 300 µM (not active)	> 300 µM (not active)	–
COc1cc(N2N=C(c3ccccc3)CC2c2ccccc2)c(C=O)cc1C=O (stereo not drawn)	–	–	–	EC50 [3]: > 195 µM (not active)
N#Cc1cccc(NC(=O)N2CCCC3(CCN(C(=O)c4cc(C(F)(F)F)cc(C(F)(F)F)c4)CC3)C2)c1	6.31 µM (inconclusive)	–	–	–
N#Cc1c(N)n(-c2ccc(C(=O)O)cc2)c2nc3ccccc3nc12	–	> 300 µM (not active)	> 300 µM (not active)	–
NC[C@H](CP(=O)(O)O)c1ccc(Cl)cc1	39.8 µM (inconclusive)	–	–	–
